The values below come from patent publication US9333219B2, “Method to treat or prevent herpesvirus infections” (ALBERT EINSTEIN COLLEGE OF MEDICINE OF YESHIVA UNIVERSITY, priority 2012, dated 2016).

For one series, the system named is HSV-1 and HSV-2. The conditions noted are these: prior studies (Cheshenko, 2003; 2007); cited from earlier work.
For series [1], the system named is HSV-induced Ca2+ response. The experiment in a line: Calcium kinetic measurements (fura-2 fluorometry) in CaSki cells. In kind it is cell-based, human. The method, then: FIG. 4A-4E: Akt is required for HSV-induced calcium release and treatment with the ionophore, ionomycin, partially overcomes the block to infection in Akt-silenced cells. CaSki cells were loaded with Calcium Green 72 h post-transfection with the indicated siRNA and synchronously mock-infected or infected with purified HSV-2(G). Live images were acquired 3 min post-temperature shift to 37° C. For these xyz images, the plasma membranes are red (medium gray in grayscale), nuclei are blue (darkest gray in grayscale), and Ca^2+ is green (lighter gray in grayscale); colocalization of Ca^2+ and plasma membrane is yellow (lightest gray in grayscale). Representative images from 4 independent experiments are shown; the grid bars indicate a distance of 9.2 micrometers (a). Transfected cells were loaded with fura-2, infected with purified HSV-2 (moi 2 pfu/cell) or mock-infected and the kinetics of Ca^2+ response monitored. The mean intracellular [Ca^2+] for 5×10^4 cells over the first 30 minutes was quantified; control cells were also pretreated with wortmannin or miltefosine and then infected with HSV-2 (b). The cumulative [Ca^2+] released over 1 hour was calculated from 4 wells, each containing 5×10^4 cells (mock-infected, HSV-2 infected in the absence or presence of wortmannin or miltefosine, or following treatment of uninfected cells with 1 μM of ionomycin) (c). […]

In series [2] the test system is HSV-2. Nature of the series: VP16 nuclear transport as surrogate of viral entry. The conditions noted are these: 1 μM, treated immediately prior to infection, 1 pfu/cell. Format: cell-based. The method, then:
(§1) FIG. 3A-3C: Silencing of Akt inhibits viral entry independent of viral binding. Transfected CaSki cells were exposed to serial dilutions of HSV-2(G) at the moi (pfu/cell) indicated for 5 h at 4° C. The cell-bound viral particles were detected by analyzing Western blots of cell lysates for gD; blots were also probed with antibodies to total Akt (to assess silencing) and β-actin (control for protein loading) (a). Cells were transfected with siControl or siAkt123 and silencing confirmed by preparing Western blots of cell lysates 48 h post-transfection and probing for total Akt and β-actin expression (b). The siRNA-transfected cells were inoculated with HSV-2(G) and nuclear extracts were prepared and analyzed for the presence of the viral tegument protein VP16 by Western blotting; blots were probed with antibodies to histone-H1 as a nuclear extract control. […]
FIG. 4A-4E: Akt is required for HSV-induced calcium release and treatment with the ionophore, ionomycin, partially overcomes the block to infection in Akt-silenced cells. […] Transfected cells were loaded with fura-2, infected with purified HSV-2 (moi 2 pfu/cell) or mock-infected and the kinetics of Ca^2+ response monitored. The mean intracellular [Ca^2+] for 5×10^4 cells over the first 30 minutes was quantified; control cells were also pretreated with wortmannin or miltefosine and then infected with HSV-2 (b). […]

For series [3], the system named is HSV-2. The experiment in a line: HSV-2 plaque assay after pretreatment with Akt pharmacological inhibitors. Format: cell-based. The conditions noted are these: CaSki, SK-N-SH or HaCAT cells pretreated 15 min with drug, infected with HSV-2 1 h, plaques counted 48 h pi. The method, then:
FIG. 8A-8B: Pharmacological inhibitors of Akt signaling inhibit HSV-2 plaque formation. Cells (CaSki, SK-N-SH, or HaCAT) cells were pretreated for 15 minutes with each of the indicated drugs and then challenged with serial dilutions of HSV-2. The inoculum (and drug) were removed after 1 h, and then cells were overlaid with fresh medium; plaques were counted after 48 h incubation. Results are presented as percent pfu relative to control wells (treated with 0.1% DMSO) (a). Alternatively, cells were treated for 24 h with drugs alone (0.01% nonoxynol-9 (N9) is included as a positive toxicity control) and then cell viability determined by MTT assay (b).
Akt is a potential target for HSV treatment: A series of Akt pharmacological inhibitors being developed as adjunct therapy for cancer including MK-2206, an allosteric Akt inhibitor (Yap, 2011); inhibitor VIII, which binds to the pleckstrin homology domain of Akt and prevents subsequent phosphorylation as well as translocation of Akt to the plasma membrane (Calleja, 2009); miltefosine, a drug licensed for treatment of leishmaniasis and other protozoal infections that blocks Akt phosphorylation (Ruiter, 2003), and perifosine, a structural analogue of miltefosine in Phase 3 clinical trials for treatment of several cancers (Richardson, 2012) were tested. […]

The next series relates to Akt. The experiment in a line: Western blot of HSV-induced Akt phosphorylation (pS473-Akt1/2/3) in HaCAT cells. In kind it is cell-based, human. The conditions noted are these: HaCAT cells pretreated with drug, HSV-2(G) moi 10 pfu/cell. On the technique in general: Immunoblotting shows a protein as a band on a membrane.
A further series has as its system HSV-1 K26GFP. The experiment in a line: Viral entry by confocal microscopy with HSV-1 K26GFP in CaSki cells. The conditions noted are these: CaSki cells pretreated with drug. Format: cell-based. On the procedure:
as §1
Two independent approaches were applied to determine if Akt contributes to viral entry. […] After incubation for 45 minutes, nuclear extracts were prepared and evaluated for VP16 by Western blot; histone H1 was included as a control for the nuclear extracts (FIG. 3b). […] Viral capsids were readily detected in the majority of siControl cells (73% and 82% 1 and 4 h pi, respectively), whereas viral capsids were detected in few siAkt cells (7% and 5.5%) (FIG. 3c). […]
Confocal microscopy: Viral entry was also monitored by confocal microscopy. […]

Series [4] has as its system HSV-2 clinical isolates DT1 and DT2. The conditions noted are these: CaSki cells pretreated.
Protocol: CaSki cells were pretreated with control buffer or with miltefosine prior to Infection with an acyclovir susceptible (DT1) or acyclovir-resistant (DT2) isolate. Alternatively cells were pretreated with control buffer and acyclovir (dose) was added to the overlay media.
The HSV-2 clinical isolates 4674, DT1 (acyclovir susceptible) and DT2 (acyclovir resistant) were propagated on CaSki cells (Segarra, 2011)(Oram, 2000).
For plaque assays, cells were exposed to serial dilutions of virus for 1 h and then washed three times with phosphate buffered saline (PBS), pH 7.4, and overlaid with 199 medium containing 1% pooled human IgG. Plaques were counted by immunoassay using an anti-human IgG antibody peroxidase conjugate (Calbiochem) (Herold, 1991). In select experiments cells were pretreated with drugs that block Akt signaling or acyclovir was added to the overlay medium.
In a further series the test system is HSV-2(4674). The experiment in a line: Ganglion-epithelial cell ex vivo co-culture model.

“Also recorded” adds a separate entry of the source.

Protocol for HSV-2(4674): Sacral ganglia were extracted from mice on day 7 following intravaginal infection with the indicated viral inoculum and co-cultured ex vivo with Vero cells in medium containing DMSO or 20 μM miltefosine. Culture supernatants were collected on the indicated days post-co-culture and viral growth monitored by plaque assay. Results are presented as pfu/ml (mean±sd) obtained from two independent experiments; each with sacral ganglia (d).
Sacral ganglia were removed from mice that had been vaginally infected with 5×10^4 or 5×10^5 pfu of HSV-2 on Day 7 and were then co-cultured with Vero cells in the absence or presence of 20 μM miltefosine. Media was removed on the indicated days post-co-culture and assayed for the presence of infectious virus by titering on Vero cells.
Ganglion-epithelial cell ex vivo co-cultures: Seven days pi, sacaral ganglia were excised from animals that been intravaginally infected with 5×10^4 or 5×10^5 pfu of HSV-2(4674). The tissue was co-cultured with confluent Vero cells in 60-mm Petri dishes containing DMEM supplemented with 0.1% DMSO (control) or with 20 μM of miltefosine. Culture supernatants were collected on days 2-7 post-co-culture and concentration of virus released into the media determined by plaque assay on Vero cells.

`NCCOB(c1ccccc1)c1ccccc1` [2-aminoethoxydiphenyl borate]: in the series on HSV-1 and HSV-2, the “increase in [Ca2+] triggered by HSV” value is on record as “blocked” and the viral entry result is recorded as “blocked”.

On to `C[C@H](CCC(=O)O)C[C@H](C)C[C@H](C)C(=O)/C=C(\O)[C@H](C)C[C@H](C)C/C=C/[C@@H](C)[C@@H](O)[C@@H](C)[C@@H](O)C[C@@H]1CC[C@@](C)([C@H]2CC[C@@](C)([C@@H](C)O)O2)O1` [ionomycin], for which the “Ca2+ release from siRNA-transfected cell populations” value in series [1] (1 μM, confocal imaging and fluorometry) is “triggered the release of a comparable amount of Ca2+”. For the same compound, in the series with HSV-2 [2], the “susceptibility to HSV entry in Akt-silenced cells (nuclear VP16)” value is reported as “partially restored the susceptibility to HSV entry”.

As to `CCCCCCCCCCCCCCCCOP(=O)([O-])OCC[N+](C)(C)C` [miltefosine, 2-(hexadecoxy-oxido-phosphoryl)oxyethyl-trimethyl-azanium], the “inhibition of HSV infection (plaque formation, pfu relative to control wells)” value in the series with HSV-2 [3] is “most potent”. Also, the “viral induced phosphorylation of Akt” value in the series with Akt is listed as “blocked viral induced phosphorylation of Akt”. Further, the “HSV-induced Ca2+ response” value in series [1] (CaSki cells pretreated with drug (wortmannin 5 nM), HSV-2(G) moi 2 pfu/cell, first hour) is “blocked the HSV-induced Ca^2+ response; also recorded: prevented viral induced Ca^2+ response”. For the same compound, the “viral entry (confocal imaging with GFP labeled virus)” value in the series with HSV-1 K26GFP is “prevented viral entry”. In addition, the “activity against acyclovir susceptible and acyclovir resistant viruses in a plaque assay” value in series [4] is “active against acyclovir susceptible and acyclovir resistant viruses”. Further, the “cytotoxicity in ganglion ex vivo co-culture” value in the series on HSV-2(4674) (cells cultured in drug for one week) is on record as “No cytotoxicity was observed”. Moreover, the “viral amplification in ganglion explant co-culture” value with HSV-2(4674) (mouse sacral ganglia day 7 after vaginal HSV-2, co-cultured with Vero cells, 20 μM) is “blocked viral amplification”.
